Data as given in patent US8034811B2, “Hydroxamic acid esters and pharmaceutical use thereof” (Leo Pharma A/S, priority 2003, dated 2011).

What follows are molecules tested against T1, human intracellular domain of KDR (VEGF Receptor-2) (Homo sapiens, UniProt P35968) (assay: In vitro KDR kinase assay). Conditions: IC50 as molar concentration; GST-KDR-cyt, substrate phospholipase Cγ, ATP 100 μM, 30 min room temperature, time-resolved fluorometry.
T1 construct: A fusion protein containing the intracellular domain (amino acids 793 to 1357) of the KDR and N-terminally tagged to GST; made in house; host or cells: Sf9 insect cells (baculovirus, pDEST20) for GST-KDR-cyt; E. coli BL21 (pGEX-4T-1) for GST-PLCγ
T1 sequence (P35968 794-1356 limits assumed): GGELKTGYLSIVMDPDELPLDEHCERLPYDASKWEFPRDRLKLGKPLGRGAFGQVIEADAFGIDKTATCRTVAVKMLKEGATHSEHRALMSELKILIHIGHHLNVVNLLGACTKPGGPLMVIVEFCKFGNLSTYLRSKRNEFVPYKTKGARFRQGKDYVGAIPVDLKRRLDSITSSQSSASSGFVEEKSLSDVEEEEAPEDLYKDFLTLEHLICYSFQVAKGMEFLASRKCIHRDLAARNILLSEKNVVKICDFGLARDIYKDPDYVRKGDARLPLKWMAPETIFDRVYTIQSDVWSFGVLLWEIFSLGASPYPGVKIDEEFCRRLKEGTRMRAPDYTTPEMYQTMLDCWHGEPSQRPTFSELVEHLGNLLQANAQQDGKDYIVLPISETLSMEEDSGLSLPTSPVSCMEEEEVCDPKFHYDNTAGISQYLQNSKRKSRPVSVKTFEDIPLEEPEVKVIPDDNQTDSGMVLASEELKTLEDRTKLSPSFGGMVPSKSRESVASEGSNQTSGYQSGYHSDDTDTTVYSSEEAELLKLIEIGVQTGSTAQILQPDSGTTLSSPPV
Assay type: biochemical
Protocol: The intracellular domain of the KDR receptor was used in the in vitro KDR assay. This domain contains the tyrosine kinase domain of KDR, and when expressed in Sf9 cells, this domain is constitutively active i.e. the kinase domain is phosphorylated on tyrosine residues.
The compounds to be tested were dissolved in DMSO at 10 mM, stored at −20° C. and protected from light. The maximum concentration of DMSO in the in vitro assay was 0.1%. Control samples received the same concentration of solvent as the samples treated with the test compounds.
For the kinase assays, black 96 wells MaxiSorp microtiter plates were coated by an overnight incubation with 100 μl/well of a 2.5 μg/ml solution of phospholipase Cγ in TBS buffer (40 mM Tris-HCl, pH 7.4, 20 mM Mg(C2H3O2)2, 0.02% NaN3) at 4° C. The plates were washed 3 times with TBS buffer containing 0.1% Tween-20, and the residual binding sites were masked by incubation with 1% BSA in TBS buffer containing 0.1% Tween-20 for 1 h. The plates were washed again and the test compounds were added at final concentrations up to 10 μM, together with ATP at the final concentration of 100 μM in 50 μl TBS buffer/well. Then, 50 μl of the human intracellular domain of KDR (VEGF Receptor-2) finally diluted 3000-3500 fold were added and were incubated for 30 min at room temperature. The plates were washed and 100 μl of the Europium labelled PY-20 anti-phosphotyrosine antibody (Wallac, FIN) were incubated in each well at the concentration of approximately 114 ng/ml for 2 h. Then, the plates were washed and 100 μl of enhancer solution (Wallac, FIN) were incubated in each well for 5 min in the dark. The plates were read in a Victor 1420 multilabel counter, using a Europium protocol for time-resolved fluorometry (Wallac, FIN): excitation 340 nm, emission 615 nm, sample pulse cycle 400 μs. Fluorescence was measured for 400 μs between flashes after a delay time of 400 μs. The background measured in the absence of enzyme was subtracted from all samples. The molar concentrations that inhibited 50% of the maximal enzymatic activity (IC50) were calculated from the dose-response curve, by fitting a straight line between the two concentrations immediately above and below the 50% inhibition point (i.e. by solving the equation y=a+bx).

Row | SMILES | IC50 [µM]
1 | O=C(NOCc1ccc(Br)cc1)c1ccccc1NCc1ccncc1 [Compound 44, N-(4-Bromo-benzyloxy)-2-[(pyridin-4-ylmethyl)-amino]-benzamide] | 0.0501
2 | O=C(NOCc1cccc(I)c1)c1ccccc1NCc1ccncc1 [Compound 46, N-(3-Iodo-benzyloxy)-2-[(pyridin-4-ylmethyl)-amino]-benzamide] | 0.0631
3 | O=C(NOCc1cccc(C#CCO)c1)c1ccccc1NCc1ccncc1 [Compound 50, N-[3-(3-Hydroxy-prop-1-ynyl)-benzyloxy]-2-[(pyridin-4-ylmethyl)-amino]-benzamide] | 0.0631
4 | O=C(NOCc1ccccc1C#CCO)c1ccccc1NCc1ccncc1 [Compound 52, N-[2-(3-Hydroxy-prop-1-ynyl)-benzyloxy]-2-[(pyridin-4-ylmethyl)-amino]-benzamide] | 0.0631
5 | N#CCc1ccccc1CONC(=O)c1ccccc1NCc1ccncc1 [Compound 56, N-(2-Cyanomethyl-benzyloxy)-2-[(pyridin-4-ylmethyl)-amino]-benzamide] | 0.0501
6 | O=C(NOCc1ccc(CO)cc1)c1ccccc1NCc1ccncc1 [Compound 58, N-(4-Hydroxymethyl-benzyloxy)-2-[(pyridin-4-ylmethyl)-amino]-benzamide] | 0.0631
7 | Cc1ccc(CONC(=O)c2ccccc2NCc2ccncc2)cc1C(F)(F)F [Compound 62, N-(4-Methyl-3-trifluoromethyl-benzyloxy)-2-[(pyridin-4-ylmethyl)-amino]-benzamide] | 0.0631
8 | COc1ccc(CONC(=O)c2ccccc2NCc2ccncc2)cc1C(F)(F)F [Compound 63, N-(4-Methoxy-3-trifluoromethyl-benzyloxy)-2-[(pyridin-4-ylmethyl)-amino]-benzamide] | 0.0631
9 | COc1ccccc1CONC(=O)c1ccccc1NCc1ccncc1 [Compound 64, N-(2-Methoxy-benzyloxy)-2-[(pyridin-4-ylmethyl)-amino]-benzamide] | 0.0501
10 | O=C(NOCc1ccccc1OC(F)(F)F)c1ccccc1NCc1ccncc1 [Compound 66, 2-[(Pyridin-4-ylmethyl)-amino]-N-(2-trifluoromethoxy-benzyloxy)-benzamide] | 0.0631
11 | O=C(NOCc1cccc(OC(F)(F)F)c1)c1ccccc1NCc1ccncc1 [Compound 67, 2-[(Pyridin-4-ylmethyl)-amino]-N-(3-trifluoromethoxy-benzyloxy)-benzamide] | 0.0501
12 | O=C(NOCc1ccc(OC(F)(F)F)cc1)c1ccccc1NCc1ccncc1 [Compound 68, 2-[(Pyridin-4-ylmethyl)-amino]-N-(4-trifluoromethoxy-benzyloxy)-benzamide] | 0.0794
13 | O=C(NOCc1ccccc1SC(F)(F)F)c1ccccc1NCc1ccncc1 [Compound 70, 2-[(Pyridin-4-ylmethyl)-amino]-N-(2-trifluoromethylsulfanyl-benzyloxy)-benzamide] | 0.0316
14 | O=C(NOCc1ccc2c(c1)OCO2)c1ccccc1NCc1ccncc1 [Compound 72, N-(Benzo[1,3]-dioxol-5-ylmethoxy)-2-[(pyridin-4-ylmethyl)-amino]-benzamide] | 0.0398
15 | N#Cc1cccc(CONC(=O)c2ccccc2NCc2ccncc2)c1 [Compound 74, N-(3-Cyano-benzyloxy)-2-[(pyridin-4-ylmethyl)-amino]-benzamide] | 0.0631
16 | N#Cc1ccccc1CONC(=O)c1ccccc1NCc1ccncc1 [Compound 75, N-(2-Cyano-benzyloxy)-2-[(pyridin-4-ylmethyl)-amino]-benzamide] | 0.0631
17 | N#Cc1ccc(CONC(=O)c2ccccc2NCc2ccncc2)cc1Br [Compound 77, N-(3-Bromo-4-cyano-benzyloxy)-2-[(pyridin-4-ylmethyl)-amino]-benzamide] | 0.0398
18 | COc1cc(C#N)ccc1CONC(=O)c1ccccc1NCc1ccncc1 [Compound 79, N-(4-Cyano-2-methoxy-benzyloxy)-2-[(pyridin-4-ylmethyl)-amino]-benzamide] | 0.0398
19 | N#Cc1ccc(CONC(=O)c2ccccc2NCc2ccncc2)c(I)c1 [Compound 80, N-(4-Cyano-2-iodo-benzyloxy)-2-[(pyridin-4-ylmethyl)-amino]-benzamide] | 0.0398
20 | N#Cc1ccc(Br)c(CONC(=O)c2ccccc2NCc2ccncc2)c1 [Compound 81, N-(2-Bromo-5-cyano-benzyloxy)-2-[(pyridin-4-ylmethyl)-amino]-benzamide] | 0.0501
21 | Nc1ccccc1CONC(=O)c1ccccc1NCc1ccncc1 [Compound 85, N-(2-Amino-benzyloxy)-2-[(pyridin-4-ylmethyl)-amino]-benzamide] | 0.0501
22 | COC(=O)c1cccc(CONC(=O)c2ccccc2NCc2ccncc2)c1 [Compound 87, 3-{2-[(Pyridin-4-ylmethyl)-amino]-benzoylaminooxymethyl}-benzoic acid methyl ester] | 0.1
23 | CN(C)CCNC(=O)c1cccc(CONC(=O)c2ccccc2NCc2ccncc2)c1 [Compound 96, N-[3-(2-dimethylaminoethylcarbamoyl)-benzyloxy]-2-[(pyridin-4-ylmethyl)-amino]-benzamide] | 0.0794
24 | O=C(NOCc1ccccc1-c1cccs1)c1ccccc1NCc1ccncc1 [Compound 98, 2-[(Pyridin-4-ylmethyl)-amino]-N-(2-thiophen-2-yl-benzyloxy)-benzamide] | 0.0398

Now from value to molecule:

Row | IC50 [µM] | SMILES
25 | 0.02 | Cc1ccc(CONC(=O)c2ccccc2NCc2ccncc2)cc1F [Compound 41, N-(3-Fluoro-4-methyl-benzyloxy)-2-[(pyridin-4-ylmethyl)-amino]-benzamide]
26 | 0.01 | Cc1ccc(F)cc1CONC(=O)c1ccccc1NCc1ccncc1 [Compound 42, N-(5-Fluoro-2-methyl-benzyloxy)-2-[(pyridin-4-ylmethyl)-amino]-benzamide]
27 | 0.02 | COc1c(F)c(F)c(CONC(=O)c2ccccc2NCc2ccncc2)c(F)c1F [Compound 43, 2-[(Pyridin-4-ylmethyl)-amino]-N-(2,3,5,6-tetrafluoro-4-methoxy-benzyloxy)benzamide]
28 | 0.0316 | O=C(NOCc1ccccc1I)c1ccccc1NCc1ccncc1 [Compound 45, N-(2-Iodo-benzyloxy)-2-[(pyridin-4-ylmethyl)-amino]-benzamide]
29 | 0.0158 | Cc1ccc(CONC(=O)c2ccccc2NCc2ccncc2)cc1 [Compound 47, N-(4-Methyl-benzyloxy)-2-[(pyridin-4-ylmethyl)-amino]-benzamide]
30 | 0.0316 | O=C(NOCc1ccc(F)cc1C(F)(F)F)c1ccccc1NCc1ccncc1 [Compound 59, N-(4-Fluoro-2-trifluoromethyl-benzyloxy)-2-[(pyridin-4-ylmethyl)-amino]-benzamide]
31 | 0.02 | O=C(NOCc1c(F)cccc1C(F)(F)F)c1ccccc1NCc1ccncc1 [Compound 60, N-(2-Fluoro-6-trifluoromethyl-benzyloxy)-2-[(pyridin-4-ylmethyl)-amino]-benzamide]
32 | 0.0158 | O=C(NOCc1ccc(F)c(C(F)(F)F)c1)c1ccccc1NCc1ccncc1 [Compound 61, N-(4-Fluoro-3-trifluoromethyl-benzyloxy)-2-[(pyridin-4-ylmethyl)-amino]-benzamide]
33 | 0.00631 | O=C(NOCc1ccccc1OC(F)F)c1ccccc1NCc1ccncc1 [Compound 69, N-(2-Difluoromethoxy-benzyloxy)-2-[(pyridin-4-ylmethyl)-amino]-benzamide]
34 | 0.0251 | O=C(NOCc1cc2c(cc1Cl)OCO2)c1ccccc1NCc1ccncc1 [Compound 71, N-(6-Chloro-benzo[1,3]dioxol-5-ylmethoxy)-2-[(pyridin-4-ylmethyl)amino]-benzamide]
35 | 0.0158 | O=C(NOCc1ccc2c(c1)CCC2)c1ccccc1NCc1ccncc1 [Compound 73, N-(Indan-5-ylmethoxy)-2-[(pyridin-4-ylmethyl)-amino]-benzamide]
36 | 0.0251 | N#Cc1ccc(CONC(=O)c2ccccc2NCc2ccncc2)c(F)c1 [Compound 76, N-(4-Cyano-2-fluoro-benzyloxy)-2-[(pyridin-4-ylmethyl)-amino]-benzamide]
37 | 0.0158 | N#Cc1ccc(CONC(=O)c2ccccc2NCc2ccncc2)c(Cl)c1 [Compound 78, N-(2-Chloro-4-cyano-benzyloxy)-2-[(pyridin-4-ylmethyl)-amino]-benzamide]
38 | 0.0158 | N#Cc1ccc(CONC(=O)c2ccccc2NCc2ccncc2)c2ccccc12 [Compound 82, N-(4-Cyano-naphthalen-1-ylmethoxy)-2-[(pyridin-4-ylmethyl)-amino]-benzamide]
